Experimental data published in patent publication US20200165608A1, “INHIBITION OF VASCULAR ENDOTHELIAL CELL-MEDIATED PHAGOCYTIC PROCESSES FOR TREATMENT OF DEMYELINATING CONDITIONS” (FLORIDA STATE UNIVERSITY RESEARCH FOUNDATION, INC., priority 2018, published 2020).

Legend:
myelin-ECs (BMECs) = experiment: Myelin degradation into neutral lipids (Oil Red O staining) in myelin-BMECs after autophagy drug treatment; type: cell-based, mouse; details: 3-MA 2 mM 48 hr (1 mM elsewhere in the source), chloroquine 10 μM 24 hr, rapamycin 1 μM 24 hr
Description: Oil Red O (ORO) staining. ORO staining was performed to detect intracellular neutral lipid accumulation in injured spinal cords and cultured BMECs. Spinal frozen sections or fixed cells were dehydrated in 100% propylene glycol for 5 min, then stained with 0.5% ORO solution at 60° C. for 8 min. The samples were then processed with 85% propylene glycol for 5 min followed by distilled water rinsing for 3 times. Stained samples were imaged with a confocal laser scanning microscope. Starvation and drug treatments for autophagy assays. BMECs cultured with 5% FBS containing medium were used as negative control for autophagy. The positive control for autophagy induction, BMECs, were starved with Hanks Balanced Salt Solution for 6 hr to induce autophagy. 10 μM chloroquine, an inhibitor of lysosomes, or 1 μM of rapamycin, an inducer of autophagy, was added to BMECs cultures for 24 hr after myelin debris treatment. 2 mM of 3-MA, a PI3K inhibitor of autophagy was cultured with ECs for 48 hr, starting from the last 24 hr treatment of myelin debris to the subsequent 24 hr of medium wash. Cells grown on coverslips were fixed and stained with Oil Red 0 for detection of myelin-derived lipids as above described.

BMECs [1] = details: 1 mM 3-MA (48 hr), 10 μM chloroquine (24 hr)
Description: Propidium iodide (PI) staining assay for cell death analysis. Wild-type BMECs or Atg5 knockout BMECs were cultured with DMEM medium containing 5% FBS in 24-well plate. To test the toxicity of different autophagy-related drugs, BMECs were treated with or without myelin debris and were treated with or without 1 mM 3-MA (48 hr), 10 μM chloroquine (24 hr), or 1 μM rapamycin (24 hr). After reaching 70% confluence, cells were washed with 1×PBS and fixed with 4% PFA. The fixed cells were stained with propidium iodide and Hoechst, followed by imaging and quantification of PI positive nucleus using Nikon Element software.

BMECs [2] = experiment: In vitro endothelial-to-mesenchymal transition (endoMT) assays; type: cell-based, mouse; details: TGF-β1 10 ng/ml
Description: In vitro endothelial-to-mesenchymal transition (endoMT) assays. 5×10^3 BMECs were seeded in 24-well plate for endoMT induction. As positive control, recombinant TGF-β1 protein ([…]) was added to BMECs for 72 hr to induce in vitro endoMT. Cells were considered spindle-shaped when the diameter at their longest axis to be 1.5-fold greater than the average diameter of untreated cobblestone BMECs. Myelin debris (1 mg/ml) was added to BMECs for 1, 3, 5, 7, and 10 days and culture medium was changed every 3 days, followed by morphological observation of spindle-shape cells. α-SMA staining was used to confirm the mesenchymal transition. Percentage of spindle-shaped cells and percentage of a-SMA^+/CD31^+ were quantified. To examine the role of TGF-β in myelin-induced endoMT, pan TGF-β neutralizing antibody (20 μg/ml) was added to BMECs together with myelin debris for 10 days and re-supplemented every 3 days.

[3] = q-PCR, immunostaining and western blot

Molecule: Cn1cnc(N)c2ncnc1-2 [3-MA, 3-methyladenine]
- myelin degradation into neutral lipids (ORO+ lipids) in myelin-ECs (myelin-ECs (BMECs)): significantly inhibited myelin degradation into neutral lipids

Molecule: CCN(CC)CCCC(C)Nc1ccnc2cc(Cl)ccc12 (stereo not drawn) [chloroquine]
- cell toxicity (cell death by PI staining) (BMECs [1]): without causing apparent cell toxicity
- myelin degradation into neutral lipids (ORO+ lipids) in myelin-ECs (myelin-ECs (BMECs)): significantly inhibited myelin degradation into neutral lipids

Molecule: TGF-β1: Recombinant mouse TGF-β1 (#5231), positive control, strong inducer of endoMT
- BMEC morphology (induction of endoMT) (BMECs [2]; 3 days): elongated and exhibited the same spindle-like morphology as fibroblasts
- CD31 expression in BMECs (BMECs [2]; [3]): markedly downregulated CD31 expression
- a-SMA expression in BMECs (BMECs [2]; [3]): strongly induced a-SMA expression
